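Cells were grown in 96-well plates and exposed to each compound for 48 hours at five concentrations; endpoints were interpolated linearly between bracketing concentrations, or set to the highest concentration if not reached. At the GI50, growth is halved.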 Activity calls are given as the source filed them. No stated cut-off is given here; in the data, active = GI50 up to about 1.1 µM and inactive = higher.
What was measured:
Experiment in all cases: NCI tumour cell line growth inhibition, 48 h
[1] = tested on: 786-0
[2] = tested on: A498
[3] = tested on: BT-549
[4] = tested on: CAKI-1
[5] = tested on: HCT-116
[6] = tested on: HOP-62
[7] = tested on: Hs-578T
[8] = tested on: MDA-MB-231
[9] = tested on: MOLT-4
[10] = tested on: NCI-H226
[11] = tested on: NCI-H23
[12] = tested on: RPMI-8226
[13] = tested on: SN12C
[14] = tested on: SNB-19
[15] = tested on: SNB-75
[16] = tested on: SW-620
[17] = tested on: UACC-62
[18] = tested on: UO-31
[19] = tested on: HOP-92
[20] = tested on: NCI-H522

SMILES	GI50 [1]	GI50 [2]	GI50 [3]	GI50 [4]	GI50 [5]	GI50 [6]	GI50 [7]	GI50 [8]	GI50 [9]	GI50 [10]	GI50 [11]	GI50 [12]	GI50 [13]	GI50 [14]	GI50 [15]	GI50 [16]	GI50 [17]	GI50 [18]	GI50 [19]	GI50 [20]
CO[C@H]1C[C@H](n2cc(C)c(=O)[nH]c2=O)O[C@@H]1CO	> 100 µM (inactive)	> 100 µM (inactive)	> 100 µM (inactive)	> 100 µM (inactive)	> 100 µM (inactive)	> 100 µM (inactive)	> 100 µM (inactive)	> 100 µM (inactive)	> 100 µM (inactive)	> 100 µM (inactive)	> 100 µM (inactive)	> 100 µM (inactive)	> 100 µM (inactive)	> 100 µM (inactive)	> 100 µM (inactive)	> 100 µM (inactive)	> 100 µM (inactive)	> 100 µM (inactive)		
Cc1ccc(/C=C/C(=O)Oc2ccc(/C=C3\CCC/C(=C\c4ccc(OC(=O)/C=C/c5ccc(C)cc5)cc4)C3=O)cc2)cc1	16.7 µM (inactive)		> 100 µM (inactive)	79.8 µM (inactive)	> 100 µM (inactive)	29.1 µM (inactive)	19 µM (inactive)	28.8 µM (inactive)	> 100 µM (inactive)		> 100 µM (inactive)	> 100 µM (inactive)	> 100 µM (inactive)	56.8 µM (inactive)	14.2 µM (inactive)	> 100 µM (inactive)	74.1 µM (inactive)	> 100 µM (inactive)	77.6 µM (inactive)	> 100 µM (inactive)
Cn1ccnc1CCc1ccc(F)cc1F	> 100 µM (inactive)	> 100 µM (inactive)	> 100 µM (inactive)			> 100 µM (inactive)	> 100 µM (inactive)	> 100 µM (inactive)	> 100 µM (inactive)	> 100 µM (inactive)	> 100 µM (inactive)	> 100 µM (inactive)	> 100 µM (inactive)	> 100 µM (inactive)	> 100 µM (inactive)	> 100 µM (inactive)	> 100 µM (inactive)	> 100 µM (inactive)		> 100 µM (inactive)
O=c1[nH]nc(-c2cccc([N+](=O)[O-])c2)[nH]1	> 100 µM (inactive)	> 100 µM (inactive)	> 100 µM (inactive)	> 100 µM (inactive)	> 100 µM (inactive)	> 100 µM (inactive)	47.3 µM (inactive)		> 100 µM (inactive)	> 100 µM (inactive)	> 100 µM (inactive)	> 100 µM (inactive)	> 100 µM (inactive)	> 100 µM (inactive)	> 100 µM (inactive)	> 100 µM (inactive)	> 100 µM (inactive)	70.3 µM (inactive)		> 100 µM (inactive)
CC(=O)OC12c3ccccc3C(c3ccccc31)C1C(=O)N(c3ccccn3)C(=O)C12 (configuration not stated)	> 100 µM (inactive)		38.8 µM (inactive)	> 100 µM (inactive)	54.7 µM (inactive)	65.6 µM (inactive)	14.3 µM (inactive)	77.8 µM (inactive)	32.8 µM (inactive)	> 100 µM (inactive)	> 100 µM (inactive)	27.1 µM (inactive)	81.1 µM (inactive)	14.7 µM (inactive)	23.8 µM (inactive)	> 100 µM (inactive)	91.6 µM (inactive)	15.8 µM (inactive)		
CCOC(=O)c1cn(C)nc1N/C(C)=C\C(=O)c1ccccc1	> 100 µM (inactive)		> 100 µM (inactive)	> 100 µM (inactive)		33 µM (inactive)	> 100 µM (inactive)	20.9 µM (inactive)	> 100 µM (inactive)	91.4 µM (inactive)	> 100 µM (inactive)		> 100 µM (inactive)	> 100 µM (inactive)		> 100 µM (inactive)	> 100 µM (inactive)	> 100 µM (inactive)	> 100 µM (inactive)	> 100 µM (inactive)
CC(=O)OCc1cc(=O)n2c([nH]c3ccccc32)c1C#N	40.6 µM (inactive)	69.2 µM (inactive)	> 100 µM (inactive)	28.2 µM (inactive)	51.3 µM (inactive)			48.4 µM (inactive)	47.1 µM (inactive)	> 100 µM (inactive)	> 100 µM (inactive)		67 µM (inactive)	80.2 µM (inactive)		96.6 µM (inactive)	59.7 µM (inactive)	78.3 µM (inactive)	84.3 µM (inactive)	
CN(C)C(=O)C(F)(F)C(c1ccccc1Br)C1C(=O)N(C)C(=O)N(C)C1=O (configuration not stated)	> 100 µM (inactive)	> 100 µM (inactive)	> 100 µM (inactive)	> 100 µM (inactive)	> 100 µM (inactive)	> 100 µM (inactive)		> 100 µM (inactive)		> 100 µM (inactive)	> 100 µM (inactive)	> 100 µM (inactive)		> 100 µM (inactive)	> 100 µM (inactive)	> 100 µM (inactive)	> 100 µM (inactive)	> 100 µM (inactive)	> 100 µM (inactive)	
CC1CC/C(=C\c2ccc(N(C)C)cc2)C(=O)/C1=C/c1ccc(N(C)C)cc1 (configuration not stated)	> 100 µM (inactive)	> 100 µM (inactive)	> 100 µM (inactive)	> 100 µM (inactive)	> 100 µM (inactive)	> 100 µM (inactive)		> 100 µM (inactive)	> 100 µM (inactive)	> 100 µM (inactive)	> 100 µM (inactive)		> 100 µM (inactive)		> 100 µM (inactive)	> 100 µM (inactive)	> 100 µM (inactive)	> 100 µM (inactive)		> 100 µM (inactive)
Cc1n[nH]c(=O)n1/N=C/c1cccs1	> 100 µM (inactive)	> 100 µM (inactive)	> 100 µM (inactive)	> 100 µM (inactive)	> 100 µM (inactive)	> 100 µM (inactive)	36.5 µM (inactive)	> 100 µM (inactive)		> 100 µM (inactive)	> 100 µM (inactive)	> 100 µM (inactive)	> 100 µM (inactive)	> 100 µM (inactive)	> 100 µM (inactive)	> 100 µM (inactive)	> 100 µM (inactive)	> 100 µM (inactive)		
Cc1ccc2c(=O)[nH]sc2c1	3.72 µM (inactive)	64.1 µM (inactive)	15.4 µM (inactive)	5.4 µM (inactive)	31.9 µM (inactive)	19.5 µM (inactive)	21.5 µM (inactive)	17.3 µM (inactive)	3.98 µM (inactive)	19.7 µM (inactive)	17.7 µM (inactive)	5.31 µM (inactive)	7.83 µM (inactive)	39.4 µM (inactive)	71.6 µM (inactive)	12.6 µM (inactive)	17.1 µM (inactive)			2.38 µM (inactive)
[O-][n+]1c2cccc(O)c2[n+]([O-])c2cccc(O)c21	30.2 µM (inactive)	> 100 µM (inactive)	46 µM (inactive)	25.1 µM (inactive)	21.4 µM (inactive)	27.9 µM (inactive)	> 100 µM (inactive)		3.99 µM (inactive)		94.6 µM (inactive)	18.6 µM (inactive)		92 µM (inactive)	> 100 µM (inactive)	47.9 µM (inactive)		> 100 µM (inactive)	22.7 µM (inactive)	20.4 µM (inactive)
O=C(O)c1ccccc1SCc1cccc2c(=O)c3ccc(Cl)cc3oc12	25.3 µM (inactive)	> 50 µM (inactive)	48.8 µM (inactive)	> 50 µM (inactive)	36.1 µM (inactive)	12.9 µM (inactive)		> 50 µM (inactive)	> 50 µM (inactive)	> 50 µM (inactive)	35.3 µM (inactive)	> 50 µM (inactive)	> 50 µM (inactive)		15.6 µM (inactive)	> 50 µM (inactive)	21.4 µM (inactive)	> 50 µM (inactive)		29.2 µM (inactive)
CC(C)C[C@H](NC(=O)[C@H](Cc1ccccc1)NC(=O)c1cnccn1)B(O)O [BORTEZOMIB]	< 0.01 µM (active)	< 0.01 µM (active)	< 0.01 µM (active)	< 0.01 µM (active)	< 0.01 µM (active)	< 0.01 µM (active)		< 0.01 µM (active)	< 0.01 µM (active)		< 0.01 µM (active)	0.01 µM (active)	< 0.01 µM (active)		< 0.01 µM (active)	< 0.01 µM (active)	< 0.01 µM (active)	< 0.01 µM (active)	< 0.01 µM (active)	< 0.01 µM (active)
C=C[C@@H](C)[C@H](NS(=O)(=O)c1ccc(C)cc1)C(=O)OCC	40.8 µM (inactive)	48.5 µM (inactive)	76.4 µM (inactive)		35.5 µM (inactive)	> 100 µM (inactive)	19.7 µM (inactive)	> 100 µM (inactive)	50.6 µM (inactive)	> 100 µM (inactive)	39.4 µM (inactive)	14 µM (inactive)	> 100 µM (inactive)	74 µM (inactive)	15.3 µM (inactive)	40.3 µM (inactive)	12.8 µM (inactive)	31.3 µM (inactive)		20.6 µM (inactive)
Cc1nn(-c2ccccc2)c2nc(S)cnc12	> 100 µM (inactive)	> 100 µM (inactive)	> 100 µM (inactive)	> 100 µM (inactive)	> 100 µM (inactive)	> 100 µM (inactive)	> 100 µM (inactive)		> 100 µM (inactive)	> 100 µM (inactive)	> 100 µM (inactive)	89.5 µM (inactive)	> 100 µM (inactive)	> 100 µM (inactive)		> 100 µM (inactive)	> 100 µM (inactive)	> 100 µM (inactive)	> 100 µM (inactive)	> 100 µM (inactive)
